This passage reports IC50 and inhibition results from ChEMBL document CHEMBL3091333, “Design, synthesis and biological evaluation of novel 4-anilinoquinazolines with C-6 urea-linked side chains as inhibitors of the epidermal growth factor receptor” (Bioorg Med Chem, 2013).

The target in assay [1] is T1, Epidermal growth factor receptor (Homo sapiens, UniProt P00533). Description: Inhibition of wild type EGFR (unknown origin) expressed in baculovirus expression system using poly (Glu, Tyr) 4:1 as substrate after 60 mins by ELISA. A general note: ELISA stands for enzyme-linked immunosorbent assay.
The next assay deals with NCI-H1975. In words: Antiproliferative activity against human NCI-H1975 cells expressing EGFR T790M mutant after 72 hrs by SRB assay. The assay is classed as functional, cell-based. As to conditions: NCI-H1975, 72 h.
Assay [2] deals with Epidermal growth factor receptor (Homo sapiens, UniProt P00533, L858M/T790M). In words: Inhibition of EGFR T790M/[…] double mutant (unknown origin) expressed in baculovirus expression system using poly (Glu, Tyr) 4:1 as substrate after 60 mins by ELISA.
For a further assay, the system named is A-431. In words: Antiproliferative activity against human A431 cells after 72 hrs by SRB assay. The assay is classed as functional, cell-based. As to conditions: A-431, 72 h. A general note: In SRB staining, fixed cells bind dye roughly in proportion to their protein.
The test system of assay [3] is Epidermal growth factor receptor (Homo sapiens), P00533 [T790M]. In words: Inhibition of EGF-induced EGFR T790M mutant phosphorylation in human NCI-H1975 cells assessed as ERK phosphorylation at < 10 uM incubated for 1 hr prior to EGF induction measured after 10 mins by Western blotting analysis. Format: cell-based. For orientation: Immunoblotting shows a protein as a band on a membrane.

For assay [4] the test system is unchanged. Description: Inhibition of EGF-induced EGFR T790M mutant autophosphorylation in human NCI-H1975 cells at 10 uM incubated for 1 hr prior to EGF induction measured after 10 mins by Western blotting analysis. Format: cell-based.
Assay [5] has the same test system. In words: Inhibition of EGF-induced EGFR T790M mutant phosphorylation in human NCI-H1975 cells assessed as AKT phosphorylation at < 10 uM incubated for 1 hr prior to EGF induction measured after 10 mins by Western blotting analysis. The assay is classed as cell-based.
Assay [6] has as its target T1, Epidermal growth factor receptor. Description: Inhibition of EGF-induced EGFR phosphorylation in human A431 cells incubated for 1 hr prior to EGF induction measured after 10 mins by Western blotting analysis. The following applies: A-431. Format: cell-based.
The target is the same in assay [7]. In words: Inhibition of EGF-induced EGFR phosphorylation in human A431 cells assessed as decrease in ERK phosphorylation at 0.01 to 10 uM incubated for 1 hr prior to EGF induction measured after 10 mins by Western blotting analysis. Format: cell-based. The following applies: A-431.
Assay [8] has the same target. Description: Inhibition of EGF-induced EGFR phosphorylation in human A431 cells at 0.01 uM incubated for 1 hr prior to EGF induction measured after 10 mins by Western blotting analysis. Format: cell-based. The following applies: A-431.
Assay [9] shares this target. Description: Inhibition of EGF-induced EGFR phosphorylation in human A431 cells assessed as decrease in AKT phosphorylation at 0.01 to 10 uM incubated for 1 hr prior to EGF induction measured after 10 mins by Western blotting analysis. The assay is classed as cell-based. As to conditions: A-431.

pIC50: −log10 of the molar value. Calls of active or inactive are those of the source. The calls are words filed in the database; no cut-off is given here. Bounds are passed on as bounds.

T1 sequence (P00533 whole entry): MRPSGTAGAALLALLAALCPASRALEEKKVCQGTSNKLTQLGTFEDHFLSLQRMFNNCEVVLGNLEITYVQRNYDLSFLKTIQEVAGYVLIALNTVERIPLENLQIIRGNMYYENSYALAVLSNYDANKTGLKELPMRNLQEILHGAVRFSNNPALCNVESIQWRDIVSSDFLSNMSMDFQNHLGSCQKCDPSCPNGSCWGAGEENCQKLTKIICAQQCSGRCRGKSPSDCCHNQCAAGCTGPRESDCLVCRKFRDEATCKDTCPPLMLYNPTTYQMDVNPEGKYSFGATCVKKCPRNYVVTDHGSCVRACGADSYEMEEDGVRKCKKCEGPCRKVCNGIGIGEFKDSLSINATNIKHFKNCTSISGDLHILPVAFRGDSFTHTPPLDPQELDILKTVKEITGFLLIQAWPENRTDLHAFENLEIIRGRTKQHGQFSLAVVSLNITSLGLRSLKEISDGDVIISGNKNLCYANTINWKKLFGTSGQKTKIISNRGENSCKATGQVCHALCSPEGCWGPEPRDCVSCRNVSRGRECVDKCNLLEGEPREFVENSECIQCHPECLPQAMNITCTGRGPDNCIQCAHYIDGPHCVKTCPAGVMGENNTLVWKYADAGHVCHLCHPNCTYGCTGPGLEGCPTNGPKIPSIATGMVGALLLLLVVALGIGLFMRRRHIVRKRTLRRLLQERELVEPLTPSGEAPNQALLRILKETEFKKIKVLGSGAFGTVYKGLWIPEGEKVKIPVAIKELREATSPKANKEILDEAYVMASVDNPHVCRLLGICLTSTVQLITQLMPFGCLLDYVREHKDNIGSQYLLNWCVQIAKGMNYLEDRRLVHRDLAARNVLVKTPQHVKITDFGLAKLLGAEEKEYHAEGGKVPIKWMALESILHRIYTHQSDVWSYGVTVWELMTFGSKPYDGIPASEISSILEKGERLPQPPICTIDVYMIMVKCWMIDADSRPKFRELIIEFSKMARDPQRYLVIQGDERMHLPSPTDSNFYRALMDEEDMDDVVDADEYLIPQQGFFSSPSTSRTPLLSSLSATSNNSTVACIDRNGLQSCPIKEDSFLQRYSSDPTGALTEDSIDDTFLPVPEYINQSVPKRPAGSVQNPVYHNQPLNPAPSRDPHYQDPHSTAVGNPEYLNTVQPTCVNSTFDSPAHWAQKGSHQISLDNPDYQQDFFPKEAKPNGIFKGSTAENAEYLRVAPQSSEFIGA
Chain of Epidermal growth factor receptor (Homo sapiens), P00533 [T790M] (P00533 whole entry T790M): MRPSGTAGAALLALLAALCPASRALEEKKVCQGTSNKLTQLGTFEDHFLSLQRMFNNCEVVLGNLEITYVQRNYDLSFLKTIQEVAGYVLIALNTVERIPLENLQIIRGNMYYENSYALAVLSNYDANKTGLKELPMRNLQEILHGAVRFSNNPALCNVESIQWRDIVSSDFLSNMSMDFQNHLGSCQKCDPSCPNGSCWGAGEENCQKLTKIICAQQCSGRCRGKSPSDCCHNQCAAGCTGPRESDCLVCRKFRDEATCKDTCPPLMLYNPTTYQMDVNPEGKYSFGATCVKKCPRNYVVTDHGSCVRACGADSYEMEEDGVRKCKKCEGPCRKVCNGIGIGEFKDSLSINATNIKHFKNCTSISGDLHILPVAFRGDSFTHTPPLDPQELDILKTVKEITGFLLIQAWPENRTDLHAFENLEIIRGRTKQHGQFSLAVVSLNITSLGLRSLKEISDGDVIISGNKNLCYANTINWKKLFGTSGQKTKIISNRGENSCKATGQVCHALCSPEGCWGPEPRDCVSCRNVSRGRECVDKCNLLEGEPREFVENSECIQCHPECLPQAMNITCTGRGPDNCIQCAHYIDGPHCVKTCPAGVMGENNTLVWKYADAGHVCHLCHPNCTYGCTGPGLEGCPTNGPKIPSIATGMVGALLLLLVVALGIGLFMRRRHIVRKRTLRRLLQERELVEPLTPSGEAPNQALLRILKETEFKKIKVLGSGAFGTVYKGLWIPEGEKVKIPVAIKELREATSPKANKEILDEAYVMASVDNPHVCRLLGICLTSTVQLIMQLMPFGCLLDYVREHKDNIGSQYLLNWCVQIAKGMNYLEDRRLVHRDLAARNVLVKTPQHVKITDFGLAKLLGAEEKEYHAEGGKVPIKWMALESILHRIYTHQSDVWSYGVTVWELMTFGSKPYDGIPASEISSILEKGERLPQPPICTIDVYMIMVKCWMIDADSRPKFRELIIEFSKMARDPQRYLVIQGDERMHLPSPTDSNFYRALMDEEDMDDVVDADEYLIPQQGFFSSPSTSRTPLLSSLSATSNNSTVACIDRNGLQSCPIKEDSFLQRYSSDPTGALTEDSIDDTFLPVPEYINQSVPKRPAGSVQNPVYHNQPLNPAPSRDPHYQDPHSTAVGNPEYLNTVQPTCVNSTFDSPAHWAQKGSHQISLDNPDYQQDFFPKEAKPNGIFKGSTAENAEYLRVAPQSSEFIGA
Chain of Epidermal growth factor receptor (Homo sapiens, UniProt P00533, L858M/T790M) (P00533 25-1210 T790M/L858M limits assumed): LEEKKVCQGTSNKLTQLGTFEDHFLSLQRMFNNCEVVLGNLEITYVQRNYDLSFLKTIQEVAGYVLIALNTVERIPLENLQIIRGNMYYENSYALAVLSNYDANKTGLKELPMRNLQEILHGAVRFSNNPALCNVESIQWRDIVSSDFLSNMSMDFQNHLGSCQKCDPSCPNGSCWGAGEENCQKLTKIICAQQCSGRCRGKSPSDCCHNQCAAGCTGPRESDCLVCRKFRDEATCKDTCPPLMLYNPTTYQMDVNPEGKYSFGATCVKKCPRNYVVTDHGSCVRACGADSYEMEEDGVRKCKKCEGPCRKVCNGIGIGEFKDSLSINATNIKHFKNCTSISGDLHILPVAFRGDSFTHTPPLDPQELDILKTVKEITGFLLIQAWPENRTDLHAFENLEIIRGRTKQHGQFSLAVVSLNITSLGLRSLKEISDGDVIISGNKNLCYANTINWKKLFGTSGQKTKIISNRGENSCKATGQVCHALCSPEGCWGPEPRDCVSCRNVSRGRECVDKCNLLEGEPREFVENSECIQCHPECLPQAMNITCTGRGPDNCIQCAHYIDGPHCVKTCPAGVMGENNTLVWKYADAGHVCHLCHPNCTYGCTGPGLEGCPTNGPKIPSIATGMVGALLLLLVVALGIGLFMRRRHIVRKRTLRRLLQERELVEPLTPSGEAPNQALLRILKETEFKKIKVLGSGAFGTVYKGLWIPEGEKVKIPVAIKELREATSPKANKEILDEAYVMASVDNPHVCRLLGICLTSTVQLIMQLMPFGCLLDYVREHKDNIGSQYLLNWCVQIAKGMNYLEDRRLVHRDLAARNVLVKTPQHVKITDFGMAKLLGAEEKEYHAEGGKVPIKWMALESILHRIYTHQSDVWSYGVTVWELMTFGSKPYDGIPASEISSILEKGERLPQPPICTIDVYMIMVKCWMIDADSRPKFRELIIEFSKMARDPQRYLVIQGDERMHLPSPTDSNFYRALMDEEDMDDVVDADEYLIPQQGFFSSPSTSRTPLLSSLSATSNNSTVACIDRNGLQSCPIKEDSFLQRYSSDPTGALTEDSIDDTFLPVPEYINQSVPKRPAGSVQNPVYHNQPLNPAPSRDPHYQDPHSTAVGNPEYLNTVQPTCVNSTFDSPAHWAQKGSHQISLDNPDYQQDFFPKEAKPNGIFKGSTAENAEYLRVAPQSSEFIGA

One may read the pIC50 as the negative decadic logarithm of the IC50, by convention in mol/L. A higher pIC50 goes with a low IC50. As to `O=C(Nc1cc2c(Nc3ccc(F)c(Cl)c3)ncnc2cc1O[C@H]1CCOC1)N1CC(F)C1`, the pIC50 in [1] was 6.01; in the assay on NCI-H1975, 4.87; in assay [2], 5.66; in the assay on A-431, 5.24.

In the case of `O=C(NCCN1CCOCC1)Nc1cc2c(Nc3ccc(F)c(Cl)c3)ncnc2cc1O[C@H]1CCOC1`, the pIC50 in [1] was 7.09; with NCI-H1975, 5.28; in assay [2], 7.31; with A-431 it was 6.51. Besides, the inhibition result in assay [3] and in assay [5] was “inactive” throughout. For the same compound, in [4], the inhibition entry is “Active”.

As for `O=C(Nc1cc2c(Nc3ccc(F)c(Cl)c3)ncnc2cc1O[C@H]1CCOC1)N1CCC(N2CCCC2)CC1`, the pIC50 in assay [1] is 6.58; in the assay with NCI-H1975, 5.02; in assay [2], 5.80; in the assay with A-431 it was 6.50.

In the case of `C#CCNC(=O)Nc1cc2c(Nc3ccc(F)c(Cl)c3)ncnc2cc1O[C@H]1CCOC1`, the pIC50 is 6.63 in assay [1], 4.83 in the assay on NCI-H1975, 6.43 in assay [2] and 5.43 in the assay with A-431.

In the case of `O=C(Nc1cc2c(Nc3ccc(F)c(Cl)c3)ncnc2cc1O[C@H]1CCOC1)N1CCN(CCO)CC1`, the pIC50 was 6.48 in assay [1], 4.74 in the assay with NCI-H1975, 5.38 in [2] and 5.95 in the assay with A-431.

`O=C(NCCO)Nc1cc2c(Nc3ccc(F)c(Cl)c3)ncnc2cc1O[C@H]1CCOC1`: the pIC50 with NCI-H1975 is 4.75; in the assay on A-431 it was 6.22.

Turning to `COC(CCNC(=O)Nc1cc2c(Nc3ccc(F)c(Cl)c3)ncnc2cc1O[C@H]1CCOC1)OC`, the pIC50 in assay [1] is 6.26; in the assay with NCI-H1975 it was less than 4.00; in assay [2], 6.40; with A-431, 4.66.

For the compound `O=C(NCCN1CCCCC1)Nc1cc2c(Nc3ccc(F)c(Cl)c3)ncnc2cc1O[C@H]1CCOC1`, the pIC50 was 6.78 in assay [1], 5.49 with NCI-H1975, 6.35 in [2] and 6.94 in the assay on A-431.

On to `CCN(CC)CCN(C)C(=O)Nc1cc2c(Nc3ccc(F)c(Cl)c3)ncnc2cc1O[C@H]1CCOC1`, for which the pIC50 in assay [1] was 6.30; in the assay with NCI-H1975, 5.08; in [2], 6.41; in the assay with A-431, 6.32.

In the case of `O=C(Nc1cc2c(Nc3ccc(F)c(Cl)c3)ncnc2cc1O[C@H]1CCOC1)N1CCC2(CC1)OCCO2`, the pIC50 was 5.77 in assay [1], 4.49 in the assay on NCI-H1975, 5.29 in assay [2] and 5.66 in the assay with A-431.

Take `CN(C)C/C=C/C(=O)Nc1cc2c(Nc3ccc(F)c(Cl)c3)ncnc2cc1O[C@H]1CCOC1` [AFATINIB]: the pIC50 with NCI-H1975 was 6.83.

As for `O=C(Nc1cc2c(Nc3ccc(F)c(Cl)c3)ncnc2cc1O[C@H]1CCOC1)N1CCC(F)CC1`, the pIC50 in assay [1] was 6.16; with NCI-H1975, 4.48; in assay [2] it was 5.74; in the assay on A-431, 5.52.

Turning to `CN(C)CCN(C)C(=O)Nc1cc2c(Nc3ccc(F)c(Cl)c3)ncnc2cc1O[C@H]1CCOC1`, the pIC50 in [1] is 6.55; in the assay on NCI-H1975 it was 5.09; in [2], 6.17; with A-431 it was 6.35.

Take `CN1CCN(C(=O)Nc2cc3c(Nc4ccc(F)c(Cl)c4)ncnc3cc2O[C@H]2CCOC2)CC1`: the pIC50 is 6.33 in assay [1], 4.91 in the assay with NCI-H1975, 5.25 in assay [2] and 6.17 with A-431.

For the compound `O=C(Nc1cc2c(Nc3ccc(F)c(Cl)c3)ncnc2cc1O[C@H]1CCOC1)N1CCC(F)(F)CC1`, the pIC50 in assay [1] was 6.07; with NCI-H1975 it was 4.49; in assay [2], 5.27; in the assay with A-431 it was 5.73.

As to `CN(C)CCCN(C)C(=O)Nc1cc2c(Nc3ccc(F)c(Cl)c3)ncnc2cc1O[C@H]1CCOC1`, the pIC50 in assay [1] was 6.33; in the assay on NCI-H1975, 5.48; in assay [2] it was 5.28; in the assay with A-431, 6.70.

Take `CN(C)CCNC(=O)Nc1cc2c(Nc3ccc(F)c(Cl)c3)ncnc2cc1O[C@H]1CCOC1`: the pIC50 in assay [1] is 6.20; with NCI-H1975, 5.33; in [2], 5.68; in the assay with A-431, 6.09.

Consider `COCCNC(=O)Nc1cc2c(Nc3ccc(F)c(Cl)c3)ncnc2cc1O[C@H]1CCOC1`, for which the pIC50 is 6.32 in [1], 5.08 in the assay with NCI-H1975, 5.45 in [2] and 6.41 in the assay with A-431.

Regarding `O=C(Nc1cc2c(Nc3ccc(F)c(Cl)c3)ncnc2cc1O[C@H]1CCOC1)N1CC(O)C1`, the pIC50 in [1] was 6.27; in the assay with NCI-H1975, 4.49; in assay [2], 5.85; in the assay on A-431, 5.71.

Take `O=C(Nc1cc2c(Nc3ccc(F)c(Cl)c3)ncnc2cc1O[C@H]1CCOC1)N1CCC(CCO)CC1`: the pIC50 in assay [1] is 6.52; in the assay on NCI-H1975, 4.60; in assay [2], 5.53; in the assay with A-431, 6.12.

In the case of `COCCCNC(=O)Nc1cc2c(Nc3ccc(F)c(Cl)c3)ncnc2cc1O[C@H]1CCOC1`, the pIC50 in assay [1] was 6.71; with NCI-H1975, 4.64; in [2] it was 5.78; in the assay with A-431, 5.39.

Regarding `CCN(CC)CCNC(=O)Nc1cc2c(Nc3ccc(F)c(Cl)c3)ncnc2cc1O[C@H]1CCOC1`, the pIC50 was 6.44 in [1], 5.28 in the assay on NCI-H1975, 5.65 in [2] and 6.60 in the assay on A-431.

On to `COC(=O)/C=C/CNC(=O)Nc1cc2c(Nc3ccc(F)c(Cl)c3)ncnc2cc1O[C@H]1CCOC1`, for which the pIC50 in assay [1] is 6.39; with NCI-H1975, 5.02; in [2] it was 6.58; in the assay with A-431, 5.85.

With `CS(=O)(=O)CCNC(=O)Nc1cc2c(Nc3ccc(F)c(Cl)c3)ncnc2cc1O[C@H]1CCOC1`, the pIC50 in [1] is 7.39; with NCI-H1975, 4.45; in [2], 6.17; with A-431, 5.80.

As for `O=C(Nc1cc2c(Nc3ccc(F)c(Cl)c3)ncnc2cc1O[C@H]1CCOC1)N1CCC(F)(F)C1`, the pIC50 in assay [1] was 5.80; with NCI-H1975 it was 5.35; in [2], 5.51; in the assay with A-431 it was 5.83.

As to `CN(C)CCCNC(=O)Nc1cc2c(Nc3ccc(F)c(Cl)c3)ncnc2cc1O[C@H]1CCOC1`, the pIC50 in assay [1] was 7.62; with NCI-H1975, 5.20; in [2], 6.56; in the assay with A-431, 6.65. Moreover, in assay [6], the inhibition result is “Dose-dependent effect”. Moreover, the inhibition entry in [7], in [8] and in assay [9] was “Active” each time.

On to `O=C(Nc1cc2c(Nc3ccc(F)c(Cl)c3)ncnc2cc1O[C@H]1CCOC1)N1CCCC(F)(F)C1`, for which the pIC50 in [1] is 6.05; in the assay on NCI-H1975 it was 4.36; in [2], 5.72; with A-431, 6.03.
